In patent publication EP2842965A1, “Neuromedin U analogs comprising serum albumin binding amino acid residue” (Gubra ApS, priority 2013, dated 2015):
Starred links: 1 amine or outer side, 2 acyl side, 3 side chain; linkers in the order of their positions; H or OH if unused. Residues, ends and D or L forms follow the SMILES beside them. Groups on a side chain read outwards from the residue. *: point of attachment. γGlu = O=C(O)[C@H](CCC(=O)[*:2])N[*:1]; Palmitoyl = CCCCCCCCCCCCCCCC(=O)*

Assays:
[1] = molecular target: T1, Neuromedin U receptor 2 (NMUR2) (Homo sapiens, UniProt Q9GZQ4); assay: Functional assay (IP3 SPA-ysi assay) in HEK293 cells transfected with NMUR2; type: cell-based; conditions: HEK293 cells transiently transfected with NMUR2; head says cAMP, method describes IP3 SPA readout
T1 construct: expressed in transfected cells; host or cells: HEK293 cells, transient calcium phosphate transfection; the empty-vector control is pcDNA3
T1 sequence (Q9GZQ4 whole entry): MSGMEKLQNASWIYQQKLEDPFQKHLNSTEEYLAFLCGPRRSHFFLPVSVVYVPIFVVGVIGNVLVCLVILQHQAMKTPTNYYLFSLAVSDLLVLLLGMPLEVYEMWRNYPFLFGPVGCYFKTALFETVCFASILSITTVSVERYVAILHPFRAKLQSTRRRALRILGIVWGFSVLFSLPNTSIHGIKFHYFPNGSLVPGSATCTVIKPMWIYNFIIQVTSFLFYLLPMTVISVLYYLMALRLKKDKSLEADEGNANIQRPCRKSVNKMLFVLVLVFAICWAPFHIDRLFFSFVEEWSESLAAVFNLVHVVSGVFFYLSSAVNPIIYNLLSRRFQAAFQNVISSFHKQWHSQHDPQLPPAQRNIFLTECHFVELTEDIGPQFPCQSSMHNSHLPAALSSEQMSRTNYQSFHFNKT
Experimental: (§1) All compounds were dissolved in dimethyl sulfoxide (DMSO), and then water was added (total DMSO conc. was 80%). The stock concentration was 1 mM for all the compounds. Stocks were alliquoted and frozen -20°C.
(§2) The day before each assay a new standard row was prepared by dilution of the stock solution in assay buffer (1 mM acetic acid + 0.1% bovine serum albumin (BSA)). The following concentrations were prepared (depending on the ligand potency): 10^-5, 10^-6, 10^-7, 10^-7.5, 10^-8, 10^-8.5, 10^-9, 10^-10, 10^-11, 10^-12 M.
Cell cultures: The HEK293 cells are grown in (DMEM31966 glutamax supplemented with 10% FBS (fetal bovine serum) and 1% penicillin G and streptomycin) and incubated at 37°C with 10% CO2 in a humidified atmosphere. The cells were split as follows. HEK293 cells approximately 80% confluent was used. The cells were removed from the bottom of the bottle by removing the media (DMEM31966 glutamax supplemented with 10% FBS and 1% penicillin G and streptomycin), rinsed with 5 mL phosphate buffered saline (PBS) and shaken gently. The PBS was removed and cells were released from the bottom with trypsin (1-2 mL) and incubated for 2-3 min. The flasks were then turned gently to ensure complete release of the cells from the bottom. Then media was added to the cells, (5-8 mL was used to rinse the cells of the bottom, this process was repeated approximately 4 times using the same media). Cell suspension was then transferred to a new bottle (approximately 4 × 10^6 cells per 175 cm^2 flask) and 20 mL media was added. Cells were incubated at 37°C with 10% CO2 in a humidified atmosphere.
Transfection of cells: HEK293 cells were seeded out at the density of 8 × 10^6 cells per 175 cm^2 flask 1 day prior to the transfection. Before transfection of cells, the culture medium was aspirated and half of the standard volume was added. 40 µg receptor-containing plasmid (Neuromedin U receptor 1 (NMUR1) or Neuromedin U receptor 2 (NMUR2)) or "empty" vector plasmid (pcDNA3), as a negative control, was mixed with 60 µL […] CaCl2 and Tris-EDTA (TE) buffer (10 mM tris(hydroxymethyl)aminomethane hydrochloride (Tris HCl), 1 mM ethylenedinitrilotetraacetic acid (EDTA), pH 7.5) to a total volume of 480 µL. The mixture was added drop-wise to another tube containing 480 µL 2 × HEPES buffered saline (HBS buffer) (280 mM NaCl, 50 mM 4-(2-Hydroxyethyl)piperazine-1-ethanesulfonic acid (HEPES), 1.5 mM NaHPO4, pH 7.2) and left for 45 min at room temperature for DNA precipitation. Afterwards, the precipitate was added carefully to the cells and cells were incubated for 5 hours at normal culture conditions. The transfection was stopped by change of the DNA-containing medium with 20 mL of fresh cell culture medium.
Seeding of the cells in 96 well plates: One day after transfection, cells were harvested using trypsin as described above. The cells were seeded in a poly-D-lysine coated clear 96 well plate. 100 µL cell suspension 350.000 cells/mL was added. 3H-myo-inositol (5µL/mL) was added to each well yielding a concentration of 35000 cells/well. The cells were incubated overnight before assay procedure the following day.
IP3 SPA-ysi assay: The media was removed and the plates were washed with 200 µL of Hank's balanced salt solution (HBSS) (Gibco, Life Technologies). 100 µL of HBSS/10 mM LiCl was added and the plates were incubated 15 min at 37°C. 5 µL ligand was added to each well and the plate was incubated at 37°C for 70-90 min (incubation time was approximately 1 h and 16 min for all plates). The plates were placed on ice and 50 µL formic acid (10 mM) was added to each well. The plates was left on ice for at least 30 min. 20 µL was then transferred to a white 96 well plate and 80 µL yttrium silicate (YSi) SPA-beads RPNQ0010 (Perkin Elmer) solution (0.0125 g/mL) is added to each well. The plates were sealed and shaken on high speed for 30 min, then centrifuged for 5 min at 1500 rpm and counted with 8 hours delay in the top counter. […]

[2] = molecular target: T2, Neuromedin U receptor 1 (NMUR1) (Homo sapiens, UniProt Q9HB89); assay: Functional assay (IP3 SPA-ysi assay) in HEK293 cells transfected with NMUR1; type: cell-based; conditions: HEK293 cells transiently transfected with NMUR1; head says cAMP, method describes IP3 SPA readout
T2 construct: expressed in transfected cells; host or cells: HEK293 cells, transient calcium phosphate transfection
T2 sequence (Q9HB89 1-426): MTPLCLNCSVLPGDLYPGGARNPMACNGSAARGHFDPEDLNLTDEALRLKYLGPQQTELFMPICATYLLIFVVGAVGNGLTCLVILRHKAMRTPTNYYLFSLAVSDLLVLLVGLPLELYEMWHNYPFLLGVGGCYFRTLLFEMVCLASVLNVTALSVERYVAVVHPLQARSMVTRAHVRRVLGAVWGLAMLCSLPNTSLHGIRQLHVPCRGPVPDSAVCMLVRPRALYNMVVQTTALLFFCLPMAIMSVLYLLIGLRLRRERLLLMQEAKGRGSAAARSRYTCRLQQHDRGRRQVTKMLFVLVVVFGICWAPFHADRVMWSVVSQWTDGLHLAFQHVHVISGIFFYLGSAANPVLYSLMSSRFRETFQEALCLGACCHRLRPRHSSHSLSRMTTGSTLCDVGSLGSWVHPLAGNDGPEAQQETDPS
Experimental: as §1, §2
Cell cultures: The HEK293 cells are grown in (DMEM31966 glutamax supplemented with 10% FBS (fetal bovine serum) and 1% penicillin G and streptomycin) and incubated at 37°C with 10% CO2 in a humidified atmosphere. The cells were split as follows. HEK293 cells approximately 80% confluent was used. The cells were removed from the bottom of the bottle by removing the media (DMEM31966 glutamax supplemented with 10% FBS and 1% penicillin G and streptomycin), rinsed with 5 mL phosphate buffered saline (PBS) and shaken gently. […]
IP3 SPA-ysi assay: The media was removed and the plates were washed with 200 µL of Hank's balanced salt solution (HBSS) (Gibco, Life Technologies). […] The plates were sealed and shaken on high speed for 30 min, then centrifuged for 5 min at 1500 rpm and counted with 8 hours delay in the top counter. […]

Which EC50 [1] does the source give for `CCCCCCCCCCCCCCCC(=O)N[C@@H](CCC(=O)NCCCC[C@H](NC(=O)[C@H](CCC(N)=O)NC(=O)[C@H](CO)NC(=O)[C@H](C)NC(=O)[C@H](Cc1ccccc1)NC(=O)[C@@H]1CCCN1C(=O)[C@H](CO)NC(=O)[C@H](CCC(N)=O)NC(=O)[C@H](Cc1ccccc1)NC(=O)[C@H](CCC(=O)O)NC(=O)[C@H](CCC(=O)O)NC(=O)[C@H](CC(=O)O)NC(=O)[C@@H](NC(=O)[C@H](CCCNC(=N)N)NC(=O)[C@@H](N)Cc1ccccc1)C(C)C)C(=O)N[C@@H](CCCNC(=N)N)C(=O)NCC(=O)N[C@@H](Cc1ccc(O)cc1)C(=O)N[C@@H](Cc1ccccc1)C(=O)N[C@@H](CC(C)C)C(=O)N[C@@H](Cc1ccccc1)C(=O)N[C@@H](CCCNC(=N)N)C(=O)N1CCC[C@H]1C(=O)N[C@@H](CCCNC(=N)N)C(=O)N[C@@H](CC(N)=O)C(N)=O)C(=O)O` [SEQ ID NO 5] (H-FRVDEEFQSPFASQK([γGlu-Palmitoyl])RGYFLFRPRN-NH2) here?
Its EC50 is 162 nM.

How did the EC50 [2] turn out when `CCCCCCCCCCCCCCCC(=O)N[C@@H](CCC(=O)NCCCC[C@H](NC(=O)[C@H](CCC(=O)O)NC(=O)[C@H](CC(=O)O)NC(=O)[C@@H](NC(=O)[C@H](CCCNC(=N)N)NC(=O)[C@@H](N)Cc1ccccc1)C(C)C)C(=O)N[C@@H](Cc1ccccc1)C(=O)N[C@@H](CCC(N)=O)C(=O)N[C@@H](CO)C(=O)N1CCC[C@H]1C(=O)N[C@@H](Cc1ccccc1)C(=O)N[C@@H](C)C(=O)N[C@@H](CO)C(=O)N[C@@H](CCC(N)=O)C(=O)N[C@@H](CO)C(=O)N[C@@H](CCCNC(=N)N)C(=O)NCC(=O)N[C@@H](Cc1ccc(O)cc1)C(=O)N[C@@H](Cc1ccccc1)C(=O)N[C@@H](CC(C)C)C(=O)N[C@@H](Cc1ccccc1)C(=O)N[C@@H](CCCNC(=N)N)C(=O)N1CCC[C@H]1C(=O)N[C@@H](CCCNC(=N)N)C(=O)N[C@@H](CC(N)=O)C(N)=O)C(=O)O` [SEQ ID NO 14] (H-FRVDEK([γGlu-Palmitoyl])FQSPFASQSRGYFLFRPRN-NH2) was run?
Its EC50 is 51.4 nM.

And the EC50 [1]?
Its EC50 is 52.8 nM.

How did the EC50 [1] turn out when `CCCCCCCCCCCCCCCC(=O)N[C@@H](CCC(=O)NCCCC[C@H](NC(=O)[C@H](C)NC(=O)[C@H](Cc1ccccc1)NC(=O)[C@@H]1CCCN1C(=O)[C@H](CO)NC(=O)[C@H](CCC(N)=O)NC(=O)[C@H](Cc1ccccc1)NC(=O)[C@H](CCC(=O)O)NC(=O)[C@H](CCC(=O)O)NC(=O)[C@H](CC(=O)O)NC(=O)[C@@H](NC(=O)[C@H](CCCNC(=N)N)NC(=O)[C@@H](N)Cc1ccccc1)C(C)C)C(=O)N[C@@H](CCC(N)=O)C(=O)N[C@@H](CO)C(=O)N[C@@H](CCCNC(=N)N)C(=O)NCC(=O)N[C@@H](Cc1ccc(O)cc1)C(=O)N[C@@H](Cc1ccccc1)C(=O)N[C@@H](CC(C)C)C(=O)N[C@@H](Cc1ccccc1)C(=O)N[C@@H](CCCNC(=N)N)C(=O)N1CCC[C@H]1C(=O)N[C@@H](CCCNC(=N)N)C(=O)N[C@@H](CC(N)=O)C(N)=O)C(=O)O` [SEQ ID NO 8] (H-FRVDEEFQSPFAK([γGlu-Palmitoyl])QSRGYFLFRPRN-NH2) was run?
The EC50 was 155 nM.

For `CCCCCCCCCCCCCCCC(=O)N[C@@H](CCC(=O)NCCCC[C@H](NC(=O)[C@@H](NC(=O)[C@H](CCCNC(=N)N)NC(=O)[C@@H](N)Cc1ccccc1)C(C)C)C(=O)N[C@@H](CCC(=O)O)C(=O)N[C@@H](CCC(=O)O)C(=O)N[C@@H](Cc1ccccc1)C(=O)N[C@@H](CCC(N)=O)C(=O)N[C@@H](CO)C(=O)N1CCC[C@H]1C(=O)N[C@@H](Cc1ccccc1)C(=O)N[C@@H](C)C(=O)N[C@@H](CO)C(=O)N[C@@H](CCC(N)=O)C(=O)N[C@@H](CO)C(=O)N[C@@H](CCCNC(=N)N)C(=O)NCC(=O)N[C@@H](Cc1ccc(O)cc1)C(=O)N[C@@H](Cc1ccccc1)C(=O)N[C@@H](CC(C)C)C(=O)N[C@@H](Cc1ccccc1)C(=O)N[C@@H](CCCNC(=N)N)C(=O)N1CCC[C@H]1C(=O)N[C@@H](CCCNC(=N)N)C(=O)N[C@@H](CC(N)=O)C(N)=O)C(=O)O` [SEQ ID NO 17] (H-FRVK([γGlu-Palmitoyl])EEFQSPFASQSRGYFLFRPRN-NH2), which EC50 [1] is on record?
Its EC50 is 50.5 nM.
